Source: US20090156477A1, “Compositions and Methods for Regulating Inflammatory Responses” (Massachusetts Institute of Technology, priority 2005, published 2009)
“Also recorded” adds a separate entry of the source.

Experiments:
Type in all cases: cell-based, human
[1] = system: occludin and ZO-1; assay: Immunostaining for occludin and ZO-1 in Caco-2 cells; details: 100 ng/ml
Method: To determine occludin and ZO-1 expression patterns, cells were plated on transwells as described for TER assays. Media from the basolateral chamber was removed every other day and replaced with new media. Resistances were measured for 10 days, and either 100 ng/ml FGF2, 100 ng/ml FGF7 or 10 μl PBS were added on days 10 and 12. On day 15, media was removed from both the apical and basolateral chambers, and the apical chamber was washed twice with PBS. One ml of 1% (w/v) paraformaldehyde in cacodylate buffer was added to each well, the plates were incubated for 10 minutes at room temperature, and the wells were washed once in PBS. One ml permeabilization media, consisting of 0.2% Triton X-100 and 2% BSA in PBS, was added to each well. After a 10 minute incubation at room temperature, wells were washed three times. 20 μl primary antibodies (rabbit polyclonal anti-human or occludin rabbit polyclonal anti-human ZO-1) diluted 1:20 in 1% goat serum, 0.25% sodium azide in PBS, were added to the apical chamber of three wells per antibody per ligand, and plates were incubated for 1 hour in a humidified chamber. […] Staining was then visualized by fluorescence microscopy. […] A Nikon HB10101AF fluorescence microscope was used to capture images at room temperature using a Hitachi HVC20 camera and Scion image acquisition software. […]

[2] = system: Caco-2 monolayers; assay: Monolayer flux of 3 kDa FITC-dextran, Caco-2; details: 100 ng/ml ligand on days 10 and 12, flux measured on day 15, PBS 20.28 ± 4.72
Method: (§1) Cells were plated on transwells as described. Media from the basolateral chamber was removed every other day and replaced with new media. Resistances were followed for 10 days, and either 100 ng/ml FGF2, 100 ng/ml FGF7 or 10 μl PBS were added on days 10 and 12. On day 15, media was removed from both the apical and basolateral chambers. The basolateral chamber was filled with 1 ml HBSS. FITC conjugated to 3 kDa dextran was added to the apical chamber in a volume of 100 μl, at 1 mg/ml in HBSS. After 30, 60 and 90 minutes, 50 μl was removed from the basolateral chamber and transferred to a 96 well plate, and 50 μl HBSS was added to the basolateral chamber. Subsequently, the flux was determined by measurement of FITC-conjugated dextran that crossed the monolayer by measurement with a fluorimeter, stimulating at 480 nm and measuring emission at 530 nm.

[3] = system: occludin and ZO-1; assay: Immunostaining for occludin and ZO-1 in T84 cells; details: 100 ng/ml
Method: To determine occludin and ZO-1 expression patterns, cells were plated on transwells as described for TER assays. Media from the basolateral chamber was removed every other day and replaced with new media. Resistances were measured for 10 days, and either 100 ng/ml FGF2, 100 ng/ml FGF7 or 10 μl PBS were added on days 10 and 12. On day 15, media was removed from both the apical and basolateral chambers, and the apical chamber was washed twice with PBS. One ml of 1% (w/v) paraformaldehyde in cacodylate buffer was added to each well, the plates were incubated for 10 minutes at room temperature, and the wells were washed once in PBS. One ml permeabilization media, consisting of 0.2% Triton X-100 and 2% BSA in PBS, was added to each well. After a 10 minute incubation at room temperature, wells were washed three times. 20 μl primary antibodies (rabbit polyclonal anti-human or occludin rabbit polyclonal anti-human ZO-1) diluted 1:20 in 1% goat serum, 0.25% sodium azide in PBS, were added to the apical chamber of three wells per antibody per ligand, and plates were incubated for 1 hour in a humidified chamber. […] Staining was then visualized by fluorescence microscopy. […] A Nikon HB10101AF fluorescence microscope was used to capture images at room temperature using a Hitachi HVC20 camera and Scion image acquisition software.

[4] = system: T84 monolayers; assay: Monolayer flux of 3 kDa FITC-dextran, T84; details: 100 ng/ml ligand on days 10 and 12, flux measured on day 15, PBS 7.99 ± 0.22
Method: as §1

[5] = system: f-actin; assay: f-actin (phalloidin) staining in Caco-2 cells; details: Caco-2 monolayers
Method: Caco-2 cells were grown to just prior to confluency on collagen IV coated glass slides. Cells were treated with PBS, FGF1, FGF2 and FGF7, and were incubated at 37° C. in a 5% CO2 humidified incubator for 1 hour, 4 hours, 24 hours or 48 hours, as noted. Cells were washed with PBS, fixed with 3.7% formalin for 10 minutes and washed again with PBS. Cells were treated with 0.1% Triton x-100 for 5 minutes to extract lipids. Cells were washed with PBS and preincubated with PBS supplemented with 1% bovine serum albumin. Primary antibodies were added for 4 hours at room temperature, and cells were washed with PBS. […]
Cells, except those stained with phalloidin, were washed with PBS and stained with diamidino-2-phenylindole (DAPI) for 5 minutes at room temperature (Molecular Probes). […] Cells were examined by confocal microscopy (ZO-1 and phalloidin only), or by fluorescence microscopy. A Nikon HB10101AF fluorescence microscope was used and images were captured at room temperature using a Hitachi HVC20 camera and Scion image acquisition software. […]

[6] = system: TCF/LEF; assay: TCF/LEF assay (TOPFLASH luciferase) in Caco-2 cells; details: compared to PBS and FGF1
Method: Caco-2 cells were seeded in 12 well plates such that they would reach 90% confluency in 4 days. Two days after plating, Caco-2 cells were transiently transfected with the TOPFLASH (contains 4 TCF/LEF binding elements) luciferase promoter construct (Promega, Madison, Wis.) as well as a thymidine kinase driven renilla luciferase construct (Promega, Madison, Wis.) as a transfection control vector. Each well was transfected with 1.5 μg DNA using Superfect transfection reagent (Promega, Madison, Wis.). Twenty-four hours after transfection, Caco-2 cells were treated with PBS, FGF1, FGF2 or FGF7, for 1 hour, 4 hours or 24 hours. The Caco-2 cells were processed using a dual-luciferase assay system to measure luciferase activity from both the TOPFLASH constructs and the renilla constructs. All results were standardized to the relative transfection efficiencies as observed from the renilla values.

Molecule | membrane ruffling (tight junction protein staining) [1] | Flux across monolayers (3 kDa-dextran conjugated to FITC; function of emission at 530 nm over time) [2] | membrane ruffling (tight junction protein staining) [3] | Flux across monolayers (3 kDa-dextran conjugated to FITC; function of emission at 530 nm over time) [4] | actin stress fiber formation [5] | TCF/LEF activity [6]
FGF2: Recombinant human FGF2, produced as described | induced ruffling of cell membranes; also recorded: induced notable membrane ruffling | 47.82 ± 4.64 | induced ruffling of cell membranes | 37.21 ± 10.25 | induced actin stress fiber formation | increased TCF/LEF activity
FGF7: Recombinant human FGF7 from Sigma (protein, UniProt P21781 32-194, looked up) Fibroblast growth factor 7: CNDMTPEQMATNVNCSSPERHTRSYDYMEGGDIRVRRLFCRTQWYLRIDKRGKVKGTQEMKNNYNIMEIRTVAVGIVAIKGVESEFYLAMNKEGKLYAKKECNEDCNFKELILENHYNTYASAKWTHNGGEMFVALNQKGIPVRGKKTKKEQKTAHFLPMAIT | induced ruffling of cell membranes; also recorded: induced notable membrane ruffling | 117.14 ± 25.36 | induced ruffling of cell membranes | 33.39 ± 9.24 | induced actin stress fiber formation | increased TCF/LEF activity
